For the assay, the system named is ZIKV replicon in Vero cells. The assay is described as follows: ZIKV Replication Inhibition Assay (replicon, NanoLuc). The following applies: Zika virus, Vero, 72 h, read-out: Zika Replicon EC50. In general terms: In antiviral work, replicon cells carry a viral genome segment that copies itself.

Drawing on patent publication US20250353853A1, “FLAVIVIRUS INHIBITORS” (IRBM S.P.A., priority 2022, published 2025), this text covers EC50 for 32 compounds.

Each structure is given as a SMILES string. Counter-ions that a name gives are not always drawn.

Regarding `Cc1noc(C)c1-c1cnc(C[n+]2cc([N-]C(=O)Nc3cccc(C(F)(F)F)c3)on2)cn1` [Example 169, (3-((5-(3,5-dimethylisoxazol-4-yl)pyrazin-2-yl)methyl)-1,2,3-oxadiazol-3-ium-5-yl)((3-(trifluoromethyl)phenyl)carbamoyl)amide], the EC50 (as a rule, the concentration at which the effect is half-maximal) was 100 to 1000 nM.

`Cc1noc(C)c1-c1ccc(C[n+]2cc([N-]C(=O)Nc3cccc(C(F)(F)F)c3)on2)nc1` [Example 109, (3-((5-(3,5-dimethylisoxazol-4-yl)pyridin-2-yl)methyl)-1,2,3-oxadiazol-3-ium-5-yl)((3-(trifluoromethyl)phenyl)carbamoyl)amide]: the EC50 is below 100 nM.

Take `Cc1nn(C)cc1-c1ccc(C[n+]2cc([N-]C(=O)Nc3cccc(C(F)(F)F)c3)on2)cc1` [Example 96, (3-(4-(1,3-dimethyl-1H-pyrazol-4-yl)benzyl)-1,2,3-oxadiazol-3-ium-5-yl)((3-(trifluoromethyl)phenyl)carbamoyl)amide]: the concentration for a half-maximal effect (EC50) lay in the range of 100 to 1000 nM.

With `CC(Cc1ccccc1)[n+]1cc([N-]C(=O)Nc2ccc3ccccc3c2)on1` (centres unmarked) [Example 3, (Naphthalen-2-ylcarbamoyl)(3-(1-phenylpropan-2-yl)-1,2,3-oxadiazol-3-ium-5-yl)amide], the EC50 was above 20000 nM.

Consider `CC(Cc1ccccc1)[n+]1cc([N-]C(=O)Nc2ncc(C(F)(F)F)s2)on1` (centres unmarked) [Example 4, (3-(1-phenylpropan-2-yl)-1,2,3-oxadiazol-3-ium-5-yl)((5-(trifluoromethyl)thiazol-2-yl)carbamoyl)amide], for which the EC50 lay in the range of 1000 to 20000 nM.

`C[C@H](Cc1ccccc1)[n+]1cc([N-]C(=O)Nc2cccc(C(F)(F)F)c2)on1` [Example 13, (R)-(3-(1-phenylpropan-2-yl)-1,2,3-oxadiazol-3-ium-5-yl)((3-(trifluoromethyl)phenyl)carbamoyl)amide]: the EC50 fell in the range of 1000 to 20000 nM.

On to `COc1ncc(-c2ccc(C[n+]3cc([N-]C(=O)Nc4cccc(Cl)c4)on3)cc2)c(C)n1` [Example 113, ((3-chlorophenyl)carbamoyl)(3-(4-(2-methoxy-4-methylpyrimidin-5-yl)benzyl)-1,2,3-oxadiazol-3-ium-5-yl)amide], for which the 50% effective concentration (EC50) was in the range of 100 to 1000 nM.

Take `Cc1nc(OCCO)ncc1-c1ccc(C[n+]2cc([N-]C(=O)Nc3cccc(C(F)(F)F)c3)on2)cc1` [Example 89, (3-(4-(2-(2-hydroxyethoxy)-4-methylpyrimidin-5-yl)benzyl)-1,2,3-oxadiazol-3-ium-5-yl)((3-(trifluoromethyl)phenyl)carbamoyl)amide]: the 50% effective concentration (EC50) was in the range of 100 to 1000 nM.

On to `CC(Cc1ccccc1)[n+]1cc([N-]C(=O)Nc2cc(C(F)(F)F)ccn2)on1` (centres unmarked) [Example 16, (3-(1-phenylpropan-2-yl)-1,2,3-oxadiazol-3-ium-5-yl)((4-(trifluoromethyl)pyridin-2-yl)carbamoyl)amide], for which the EC50 was above 20000 nM.

On to `O=C([N-]c1c[n+]([C@H](CO)c2ccccc2)no1)Nc1cccc(C(F)(F)F)c1` [Example 31, (S)-(3-(2-hydroxy-1-phenylethyl)-1,2,3-oxadiazol-3-ium-5-yl)((3-(trifluoromethyl)phenyl)carbamoyl)amide], for which the half-maximal effective concentration (EC50) is above 20000 nM.

For the compound `O=C([N-]c1c[n+](Cc2ccc(-c3cncnc3)cn2)no1)Nc1cccc(C(F)(F)F)c1` [Example 108, (3-((5-(pyrimidin-5-yl)pyridin-2-yl)methyl)-1,2,3-oxadiazol-3-ium-5-yl)((3-(trifluoromethyl)phenyl)carbamoyl)amide], the concentration for a half-maximal effect (EC50) fell in the range of 100 to 1000 nM.

Turning to `C[C@@H](c1ccc(-c2cncnc2)cc1)[n+]1cc([N-]C(=O)Nc2cncc(C(F)(F)F)c2)on1` [Example 77, (S)-(3-(1-(4-(pyrimidin-5-yl)phenyl)ethyl)-1,2,3-oxadiazol-3-ium-5-yl)((5-(trifluoromethyl)pyridin-3-yl)carbamoyl)amide], the EC50 was 100 to 1000 nM.

Take `O=C([N-]c1c[n+](Cc2ccc(-c3cnn(C4CCNCC4)c3)nc2)no1)Nc1cccc(C(F)(F)F)c1` [Example 117, (3-((6-(1-(piperidin-4-yl)-1H-pyrazol-4-yl)pyridin-3-yl)methyl)-1,2,3-oxadiazol-3-ium-5-yl)((3-(trifluoromethyl)phenyl)carbamoyl)amide]: the concentration for a half-maximal effect (EC50) lay in the range of 1000 to 20000 nM.

As for `Cc1ncn(C)c1-c1ccc(C[n+]2cc([N-]C(=O)Nc3cccc(C(F)(F)F)c3)on2)cc1` [Example 98, (3-(4-(1,4-dimethyl-1H-imidazol-5-yl)benzyl)-1,2,3-oxadiazol-3-ium-5-yl)((3-(trifluoromethyl)phenyl)carbamoyl)amide], the concentration for a half-maximal effect (EC50) lay within 100 to 1000 nM.

In the case of `Cc1noc(C)c1-c1ccc(C[n+]2cc([N-]C(=O)Nc3nccc(C(F)(F)F)n3)on2)nc1` [Example 171, (3-((5-(3,5-dimethylisoxazol-4-yl)pyridin-2-yl)methyl)-1,2,3-oxadiazol-3-ium-5-yl)((4-(trifluoromethyl)pyrimidin-2-yl)carbamoyl)amide], the concentration giving a half-maximal response (EC50) lay within 1000 to 20000 nM.

Regarding `O=C([N-]c1c[n+](Cc2ccc(-c3cncnc3)nc2)no1)Nc1cccc(C(F)(F)F)c1` [Example 103, (3-((6-(pyrimidin-5-yl)pyridin-3-yl)methyl)-1,2,3-oxadiazol-3-ium-5-yl)((3-(trifluoromethyl)phenyl)carbamoyl)amide], the half-maximal effective concentration (EC50) lay within 100 to 1000 nM.

For `C=C(Cc1ccccc1)[n+]1cc([N-]C(=O)Nc2cccc(C(F)(F)F)c2)on1` [Example 36, (3-(3-phenylprop-1-en-2-yl)-1,2,3-oxadiazol-3-ium-5-yl)((3-(trifluoromethyl)phenyl)carbamoyl)amide], the EC50 was above 20000 nM.

On to `Cc1ncnc(C)c1-c1ccc(C[n+]2cc([N-]C(=O)Nc3cccc(C(F)(F)F)c3)on2)cc1` [Example 81, (3-(4-(4,6-dimethylpyrimidin-5-yl)benzyl)-1,2,3-oxadiazol-3-ium-5-yl)((3-(trifluoromethyl)phenyl)carbamoyl)amide], for which the half-maximal effective concentration (EC50) is below 100 nM.

Regarding `Cc1ccccc1-c1ccc(C[n+]2cc([N-]C(=O)Nc3cccc(C(F)(F)F)c3)on2)cc1` [Example 21, (3-((2′-methyl-[1,1′-biphenyl]-4-yl)methyl)-1,2,3-oxadiazol-3-ium-5-yl)((3-(trifluoromethyl)phenyl)carbamoyl)amide], the EC50 was 100 to 1000 nM.

Turning to `C[C@@H](Cc1ccccc1)[n+]1cc([N-]C(=O)Nc2cccc(C(F)(F)F)c2)on1` [Example 14, (S)-(3-(1-phenylpropan-2-yl)-1,2,3-oxadiazol-3-ium-5-yl)((3-(trifluoromethyl)phenyl)carbamoyl)amide], the 50% effective concentration (EC50) was above 20000 nM.

Turning to `Cc1cc(C[n+]2cc([N-]C(=O)Nc3cccc(C(F)(F)F)c3)on2)ccc1-c1cncnc1` [Example 87, (3-(3-methyl-4-(pyrimidin-5-yl)benzyl)-1,2,3-oxadiazol-3-ium-5-yl)((3-(trifluoromethyl)phenyl)carbamoyl)amide], the EC50 fell in the range of 100 to 1000 nM.

Take `O=C([N-]c1c[n+](Cc2ccccc2)no1)Nc1cccc(C(F)(F)F)c1` [Example 6, (3-Benzyl-1,2,3-oxadiazol-3-ium-5-yl)((3-(trifluoromethyl)phenyl)carbamoyl) amide]: the EC50 is 1000 to 20000 nM.

With `Cc1ncnc(OCCO)c1-c1ccc(C[n+]2cc([N-]C(=O)Nc3cccc(C(F)(F)F)c3)on2)cc1` [Example 112, (3-(4-(4-(2-hydroxyethoxy)-6-methylpyrimidin-5-yl)benzyl)-1,2,3-oxadiazol-3-ium-5-yl)((3-(trifluoromethyl)phenyl)carbamoyl)amide], the half-maximal effective concentration (EC50) is below 100 nM.

As for `Cc1ccncc1-c1ccc(C[n+]2cc([N-]C(=O)Nc3cccc(C(F)(F)F)c3)on2)cc1` [Example 85, (3-(4-(4-methylpyridin-3-yl)benzyl)-1,2,3-oxadiazol-3-ium-5-yl)((3-(trifluoromethyl)phenyl)carbamoyl)amide], the EC50 was below 100 nM.

For the compound `CC(Cc1ccccc1)[n+]1cc([N-]C(=O)Nc2ccc(C(F)(F)F)cc2)on1` (centres unmarked) [Example 2, (3-(1-phenylpropan-2-yl)-1,2,3-oxadiazol-3-ium-5-yl)((4-(trifluoromethyl)phenyl)carbamoyl)amide], the concentration giving a half-maximal response (EC50) was above 20000 nM.

With `Cc1nn(C)c(C)c1-c1ccc(C[n+]2cc([N-]C(=O)Nc3cccc(C(F)(F)F)c3)on2)cc1` [Example 97], the EC50 is below 100 nM.

Take `NCc1ccccc1-c1ccc(C[n+]2cc([N-]C(=O)Nc3cccc(C(F)(F)F)c3)on2)nc1` [Example 121, (3-((5-(2-(aminomethyl)phenyl)pyridin-2-yl)methyl)-1,2,3-oxadiazol-3-ium-5-yl)((3-(trifluoromethyl)phenyl)carbamoyl)amide]: the EC50 is 100 to 1000 nM.

For `Cc1cc(NC(=O)[N-]c2c[n+](C(C)Cc3ccccc3)no2)cc(C(F)(F)F)c1` (centres unmarked) [Example 33, ((3-methyl-5-(trifluoromethyl)phenyl)carbamoyl)(3-(1-phenylpropan-2-yl)-1,2,3-oxadiazol-3-ium-5-yl)amide], the EC50 is above 20000 nM.

For `Cc1cc(C[n+]2cc([N-]C(=O)Nc3cccc(C(F)(F)F)c3)on2)ccc1-c1cncnc1C` [Example 101, (3-(3-methyl-4-(4-methylpyrimidin-5-yl)benzyl)-1,2,3-oxadiazol-3-ium-5-yl)((3-(trifluoromethyl)phenyl)carbamoyl)amide], the 50% effective concentration (EC50) is below 100 nM.

Take `O=C([N-]c1c[n+](-c2ccccc2)no1)Nc1cccc(C(F)(F)F)c1` [Example 7, (3-phenyl-1,2,3-oxadiazol-3-ium-5-yl)((3-(trifluoromethyl)phenyl)carbamoyl) amide]: the concentration for a half-maximal effect (EC50) lay within 1000 to 20000 nM.

Turning to `Cc1ncc(-c2ccc(C[n+]3cc([N-]C(=O)Nc4cccc(C(F)(F)F)c4)on3)cc2)n1C` [Example 105, (3-(4-(1,2-dimethyl-1H-imidazol-5-yl)benzyl)-1,2,3-oxadiazol-3-ium-5-yl)((3-(trifluoromethyl)phenyl)carbamoyl)amide], the EC50 fell in the range of 100 to 1000 nM.

As for `Cc1noc(C)c1-c1ccc([C@H](CN)[n+]2cc([N-]C(=O)Nc3cccc(C(F)(F)F)c3)on2)cc1` [Example 99, (R)-(3-(2-amino-1-(4-(3,5-dimethylisoxazol-4-yl)phenyl)ethyl)-1,2,3-oxadiazol-3-ium-5-yl)((3-(trifluoromethyl)phenyl)carbamoyl)amide formate], the half-maximal effective concentration (EC50) is below 100 nM.
